This assay has as its system capacitative calcium entry (CCE) in IP3 receptor-deficient strain of cell line DT40.

Structures are written as SMILES. Where two headings read alike, the source gives them in different places.
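Further: intracellular Ca2+ read as 340/380 nm excitation ratio at 510 nm emission, stores emptied by thapsigargin without external Ca2+, then 2 mM CaCl2 added, inhibition of the ensuing Ca2+ rise.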

Protocol: (Assay of Capacitative Calcium Entry Inhibition)
Its 510 nm fluorescence obtained at 340 nm and 380 nm is measured and the fluorescence ratio F340/380 is measured to determine the intracellular calcium ion concentration. Next, thapsigargin (an endoplasmic reticulum calcium ion pump inhibitor) is allowed to act without calcium ion in an extracellular fluid to deplete an intracellular calcium store. Calcium chloride at a final concentration of 2 mM is added to the extracellular fluid. The IC50 value is calculated by estimating the effect of each compound on the degree of increase in the intracellular calcium concentration at the time of the addition.

For `NCCOB(c1ccccc1)c1ccccc1` [(2-aminoethoxy)diphenylborane, reference compound], the IC50 was found to be 5 µM.

As to `OB(c1ccccc1)c1ccc(Oc2ccc(B(O)c3ccccc3)cc2)cc1` [Example 1, Bis(4,4′-(phenylhydroxyboryl)phenyl) ether], the inhibition (3 µM) amounted to 50%.

In the case of `OB(c1ccccc1)c1cccc(COCc2cccc(B(O)c3ccccc3)c2)c1` [Example 4], the inhibition is, setting by setting: (0.1 µM) 70%; (0.3 µM) 95%; (1 µM) 100%.

As to `NCCOB(c1ccccc1)c1cccc(COCc2cccc(B(OCCN)c3ccccc3)c2)c1` [Example 5, Bis(3,3′-(phenylaminoethoxyboryl)benzyl) ether], the inhibition (0.03 µM) stood at 30%, the inhibition (0.1 µM) was 95% and the inhibition (0.3 µM) stood at 100%.

Take `OB(c1ccccc1)c1ccc(COCc2ccccc2B(O)c2ccccc2)cc1` [Example 12, (2-(Phenylhydroxyboryl)benzyl) (4-(phenylhydroxyboryl)benzyl) ether]: the inhibition amounted to 10% (0.3 µM), 80% (1 µM) and 100% (3 µM).

On to `NCCOB(c1ccccc1)c1ccc(COCc2cccc(B(OCCN)c3ccccc3)c2)cc1` [Example 13, (3-(Phenylaminoethoxyboryl)benzyl) (4-(phenylaminoethoxyboryl)benzyl) ether], for which the inhibition reads like this: (0.1 µM) 10%; (0.2 µM) 80%; (0.3 µM) 100%.

As to `NCCOB(c1ccccc1)c1cccc(COCc2ccccc2B(OCCN)c2ccccc2)c1` [Example 15, (2-(Phenylaminoethoxyboryl)benzyl) (3-(phenylaminoethoxyboryl)benzyl) ether], the inhibition (0.3 µM) was 100%, the inhibition (1 µM) came to 100% and the inhibition (3 µM) was 100%.

As for `Cc1ccc(B(OCCN)c2ccc(-c3ccc(B(OCCN)c4ccc(C)cc4)cc3)cc2)cc1` [Example 45, 4,4′-(4-Methylphenylaminoethoxyboryl)diphenyl], the inhibition worked out at 20% (1 µM) and 100% (3 µM).

Consider `OB(c1ccccc1)c1ccc(COc2ccc(B(O)c3ccccc3)cc2)cc1` [Example 51, (4-Phenylhydroxyborylphenyl) (4′-phenylhydroxyborylbenzyl) ether], for which the inhibition by setting is: (1 µM) 20%; (3 µM) 100%.

As for `NCCOB(c1ccccc1)c1ccc(COc2ccc(B(OCCN)c3ccccc3)cc2)cc1` [Example 52, (4-Phenylaminoethoxyborylphenyl) (4′-phenylaminoethoxyborylbenzyl) ether], where the note is “3 µM”, the inhibition was 100%.

Regarding `NCCOB(c1ccc(COCCOc2ccc(B(OCCN)c3cccs3)cc2)cc1)c1cccs1` [Example 53, (4-(2-Thiopheneaminoethoxyboryl)phenoxyethyl) (4′-(2-thiopheneaminoethoxyboryl)benzyl) ether], the inhibition (1 µM) was found to be 10%.

Take `OB(c1ccc(COc2ccc(B(O)c3ccc(C(F)(F)F)cc3)cc2)cc1)c1ccc(C(F)(F)F)cc1` [Example 54, (4-Trifluoromethylphenylhydroxyborylphenyl) (4′-trifluoromethylphenylhydroxyborylbenzyl) ether]: the inhibition (1 µM) came out at 60% and the inhibition (3 µM) was 100%.

For `NCCOB(c1ccc(COc2ccc(B(OCCN)c3ccc(C(F)(F)F)cc3)cc2)cc1)c1ccc(C(F)(F)F)cc1` [Example 55], the inhibition (0.3 µM) came out at 0%, the inhibition (1 µM) was 20% and the inhibition (3 µM) was found to be 100%.

On to `CC(C)(C)c1cc(B(OCCN)c2ccccc2)c2c(c1)C(C)(C)c1cc(C(C)(C)C)cc(B(OCCN)c3ccccc3)c1O2` [Example 60, 4,5-Di(phenylaminoethoxyboryl)-2,7-di-t-butyl-9,9-dimethylxanthrene], for which the inhibition (1 µM) is 20% and the inhibition (3 µM) is 100%.

Consider `CNCCOB(c1ccccc1)c1ccc(Oc2ccc(B(OCCNC)c3ccccc3)cc2)cc1` [Example 68, Bis(4,4′-(phenyl-N-methylaminoethoxyboryl)phenyl) ether], for which the inhibition runs as follows: (0.3 µM) 20%; (1 µM) 80%.

Consider `CNCCOB(c1ccc(COc2ccc(B(OCCNC)c3ccc(C(F)(F)F)cc3)cc2)cc1)c1ccc(C(F)(F)F)cc1` [Example 84, (4′-Trifluoromethylphenyl-N-methylaminoethoxyboryl)-4-phenyl (4′-trifluoromethylphenyl-N-methylaminoethoxyboryl)-4-benzyl ether], for which the inhibition is, setting by setting: (1 µM) 50%; (3 µM) 100%.

Consider `CN(C)CCOB(c1ccccc1)c1cccc(COCc2cccc(B(OCCN(C)C)c3ccccc3)c2)c1` [Example 85, Bis(3,3′-(phenyl-N,N-dimethylaminoethoxyboryl)benzyl) ether], for which the inhibition runs as follows: (1 µM) 10%; (3 µM) 90%.

In the case of `c1ccc(B(OCc2ccccn2)c2ccc(COCc3ccc(B(OCc4ccccn4)c4ccccc4)cc3)cc2)cc1` [Example 88, Bis(4,4′-(phenyl-2-pyridylmethoxyboryl)benzyl) ether], the inhibition reads like this: (1 µM) 95%; (3 µM) 100%.

In the case of `Cc1ccc(B(O)c2ccc(COCc3ccc(B(O)c4ccc(C)c(Cl)c4)cc3)cc2)cc1Cl` [Example 90, Bis(4,4′-(3-chloro-4-methylphenyl-hydroxyboryl)benzyl) ether], the inhibition (1 µM) was 20% and the inhibition (3 µM) was 100%.

Turning to `COc1ccc(B(OCCN)c2ccc(COCc3ccc(B(OCCN)c4ccc(OC)cc4)cc3)cc2)cc1` [Example 94, Bis(4,4′-(p-methoxyphenyl-aminoethoxyboryl)benzyl) ether], the inhibition reads like this: (1 µM) 0%; (3 µM) 100%.

As to `CNCCOB(c1ccc(COCc2ccc(B(OCCNC)c3ccc(OC)cc3)cc2)cc1)c1ccc(OC)cc1` [Example 95, Bis(4,4′-(p-methoxyphenyl-N-methylaminoethoxyboryl)benzyl) ether], the inhibition runs as follows: (1 µM) 80%; (3 µM) 80%.

As to `Cc1ccc(B(OCCN)c2ccc(COCc3ccc(B(OCCN)c4ccc(C)c(Cl)c4)cc3)cc2)cc1Cl` [Example 102, Bis(4,4′-(3-chloro-4-methylphenyl-aminoethoxyboryl)benzyl) ether], the inhibition reads like this: (1 µM) 30%; (3 µM) 100%.

For `CNCCOB(c1ccc(COCc2ccc(B(OCCNC)c3ccc(C)c(Cl)c3)cc2)cc1)c1ccc(C)c(Cl)c1` [Example 103, Bis(4,4′-(3-chloro-4-methylphenyl-N-methylaminoethoxyboryl)benzyl) ether], the inhibition runs as follows: (1 µM) 30%; (3 µM) 80%.

For `Cc1ccc(B(OCCN(C)C)c2ccc(COCc3ccc(B(OCCN(C)C)c4ccc(C)c(Cl)c4)cc3)cc2)cc1Cl` [Example 104, Bis(4,4′-(3-chloro-4-methylphenyl-N,N-dimethylaminoethoxyboryl)benzyl) ether], the inhibition is 20% (1 µM) and 100% (3 µM).

Consider `Cc1ccc(B(OCC2CCCCN2)c2ccc(COCc3ccc(B(OCC4CCCCN4)c4ccc(C)c(Cl)c4)cc3)cc2)cc1Cl` (stereo not shown) [Example 105, Bis(4,4′-(3-chloro-4-methylphenyl-2-piperidylmethyloxyboryl)benzyl) ether], for which the inhibition amounted to 30% (1 µM) and 100% (3 µM).

For the origin of these results see patent US8017809B2, “Bisboron compound” (Japan Science and Technology Agency, priority 2005, dated 2011).
